Source: patent publication US20230263822A1, “MODULATION OF FACTOR 11 EXPRESSION” (Ionis Pharmaceuticals, Inc., priority 2008, published 2023)

Assay: Hematology assays in cynomolgus monkeys (Example 45)
Assay type: in vivo
Conditions: for MCH / MCHC / MCV / RBC count / WBC count / hematocrit / hemoglobin: escalating dose regimen
Procedure: Groups, each consisting of two male and three female monkeys, were injected subcutaneously with ISIS 416838, ISIS 416850, ISIS 416858, ISIS 416864, or ISIS 417002 in escalating doses. Antisense oligonucleotide was administered to the monkeys at 5 mg/kg three times per a week for week 1; 5 mg/kg twice per week for weeks 2 and 3; 10 mg/kg three times per week for week 4; 10 mg/kg twice per week for weeks 5 and 6; 25 mg/kg three times per week for week 7; and 25 mg/kg twice per week for weeks 8, 9, 10, 11, and 12. One control group, consisting of two male and three female monkeys, was injected subcutaneously with PBS according to the same dosing regimen. An additional experimental group, consisting of two male and three female monkeys, was injected subcutaneously with ISIS 416850 in a chronic, lower dose regimen. Antisense oligonucleotide was administered to the monkeys at 5 mg/kg three times per week for week 1; 5 mg/kg twice per week for week 2 and 3; 10 mg/kg three times per week for week 4; and 10 mg/kg twice per week for weeks 5 to 12. Body weights were measured weekly. Blood samples were collected 14 days and 5 days before the start of treatment and subsequently once per week for Factor 11 protein activity analysis in plasma, fibrinogen measurement, PT and aPTT measurements, bleeding times, and measurement of various hematologic factors. On day 85, the monkeys were euthanized by exsanguination while under deep anesthesia, and organs harvested for further analysis.
The ISIS oligonucleotide, ISIS 416850, given with the chronic dose regimen is distinguished from the other oligonucleotides with an asterisk (*).

## ISIS 416838: MOE gapmer, nucleobases 1018 to 1042 of SEQ ID NO: 1 (Table 6) (antisense GCAACCGGGATGATGAGTGC; MOE gapmer, wing and gap sizes not given here)
Day 64
  MCH: 23 pg
Day 71
  MCH: 23 pg
Day 78
  MCH: 23 pg
Day 85
  MCH: 23 pg
Day 8
  basophils: 0.2%
  eosinophils: 0.4%
  lymphocytes: 54%
  monocytes: 2.5%
  neutrophils: 42%
  platelet count: 387000 µL⁻¹
  reticulocytes: 1.2%
  MCH: 23 pg
  MCHC: 30 g/dL
  MCV: 77 fL
  RBC count: 5.7e+06 µL⁻¹
  WBC count: 10000 µL⁻¹
  hematocrit: 43%
  hemoglobin: 12.9 g/dL
Day 15
  basophils: 0.3%
  eosinophils: 0.3%
  lymphocytes: 53%
  monocytes: 2.4%
  neutrophils: 43%
  platelet count: 387000 µL⁻¹
  reticulocytes: 1.2%
  MCH: 23 pg
  MCHC: 31 g/dL
  MCV: 75 fL
  RBC count: 5.6e+06 µL⁻¹
  WBC count: 10000 µL⁻¹
  hematocrit: 42%
  hemoglobin: 12.9 g/dL
Day 22
  basophils: 0.2%
  eosinophils: 0.5%
  lymphocytes: 59%
  monocytes: 2.9%
  neutrophils: 37%
  platelet count: 319000 µL⁻¹
  reticulocytes: 1.2%
  MCH: 23 pg
  MCHC: 29 g/dL
  MCV: 80 fL
  RBC count: 5.4e+06 µL⁻¹
  WBC count: 11000 µL⁻¹
  hematocrit: 43%
  hemoglobin: 12.5 g/dL
Day 29
  basophils: 0.2%
  eosinophils: 0.3%
  lymphocytes: 59%
  monocytes: 3.2%
  neutrophils: 36%
  platelet count: 337000 µL⁻¹
  reticulocytes: 1.6%
  MCH: 23 pg
  MCHC: 29 g/dL
  MCV: 81 fL
  RBC count: 5.3e+06 µL⁻¹
  WBC count: 11000 µL⁻¹
  hematocrit: 43%
  hemoglobin: 12.4 g/dL
Day 36
  basophils: 0.4%
  eosinophils: 0.5%
  lymphocytes: 57%
  monocytes: 2.5%
  neutrophils: 39%
  platelet count: 370000 µL⁻¹
  reticulocytes: 1.6%
  MCH: 23 pg
  MCHC: 30 g/dL
  MCV: 78 fL
  RBC count: 5.5e+06 µL⁻¹
  WBC count: 10000 µL⁻¹
  hematocrit: 43%
  hemoglobin: 12.8 g/dL
Day 43
  basophils: 0.4%
  eosinophils: 0.6%
  lymphocytes: 65%
  monocytes: 3.3%
  neutrophils: 30%
  platelet count: 365000 µL⁻¹
  reticulocytes: 1.2%
  MCH: 23 pg
  MCHC: 30 g/dL
  MCV: 78 fL
  RBC count: 5.6e+06 µL⁻¹
  WBC count: 10000 µL⁻¹
  hematocrit: 43%
  hemoglobin: 12.7 g/dL
Day 50
  basophils: 0.3%
  eosinophils: 0.8%
  lymphocytes: 64%
  monocytes: 3.2%
  neutrophils: 31%
  platelet count: 372000 µL⁻¹
  reticulocytes: 1.6%
  MCH: 23 pg
  MCHC: 28 g/dL
  MCV: 80 fL
  RBC count: 5.5e+06 µL⁻¹
  WBC count: 11000 µL⁻¹
  hematocrit: 44%
  hemoglobin: 12.3 g/dL
Day 57
  basophils: 0.3%
  eosinophils: 0.6%
  lymphocytes: 63%
  monocytes: 3.2%
  neutrophils: 32%
  platelet count: 371000 µL⁻¹
  reticulocytes: 1.5%
  MCH: 23 pg
  MCHC: 29 g/dL
  MCV: 79 fL
  RBC count: 5.5e+06 µL⁻¹
  WBC count: 12000 µL⁻¹
  hematocrit: 43%
  hemoglobin: 12.6 g/dL
Day 64
  basophils: 0.4%
  eosinophils: 0.7%
  lymphocytes: 64%
  monocytes: 3.5%
  neutrophils: 30%
  platelet count: 358000 µL⁻¹
  reticulocytes: 1.3%
  MCHC: 29 g/dL
  MCV: 79 fL
  RBC count: 5.6e+06 µL⁻¹
  WBC count: 13000 µL⁻¹
  hematocrit: 44%
  hemoglobin: 12.6 g/dL
Day 71
  basophils: 0.5%
  eosinophils: 0.8%
  lymphocytes: 65%
  monocytes: 4.3%
  neutrophils: 28%
  platelet count: 365000 µL⁻¹
  reticulocytes: 1.3%
  MCHC: 29 g/dL
  MCV: 80 fL
  RBC count: 5.5e+06 µL⁻¹
  WBC count: 15000 µL⁻¹
  hematocrit: 44%
  hemoglobin: 12.7 g/dL
Day 78
  basophils: 0.4%
  eosinophils: 0.9%
  lymphocytes: 60%
  monocytes: 3.6%
  neutrophils: 35%
  platelet count: 348000 µL⁻¹
  reticulocytes: 1.4%
  MCHC: 30 g/dL
  MCV: 76 fL
  RBC count: 5.4e+06 µL⁻¹
  WBC count: 11000 µL⁻¹
  hematocrit: 41%
  hemoglobin: 12.5 g/dL
Day 85
  basophils: 0.3%
  eosinophils: 1.5%
  lymphocytes: 72%
  monocytes: 3.7%
  neutrophils: 22%
  platelet count: 344000 µL⁻¹
  reticulocytes: 1.5%
  MCHC: 30 g/dL
  MCV: 77 fL
  RBC count: 5.5e+06 µL⁻¹
  WBC count: 12000 µL⁻¹
  hematocrit: 42%
  hemoglobin: 12.4 g/dL
Day −5
  basophils: 0.3%
  eosinophils: 0.6%
  lymphocytes: 59%
  monocytes: 3.6%
  neutrophils: 35%
  platelet count: 425000 µL⁻¹
  reticulocytes: 0.9%
  MCH: 23 pg
  MCHC: 31 g/dL
  MCV: 76 fL
  RBC count: 5.6e+06 µL⁻¹
  WBC count: 12000 µL⁻¹
  hematocrit: 42%
  hemoglobin: 13.1 g/dL
Day −14
  basophils: 0.2%
  eosinophils: 0.6%
  lymphocytes: 59%
  monocytes: 3.1%
  neutrophils: 36%
  platelet count: 377000 µL⁻¹
  reticulocytes: 1.0%
  MCH: 23 pg
  MCHC: 30 g/dL
  MCV: 77 fL
  RBC count: 5.6e+06 µL⁻¹
  WBC count: 12000 µL⁻¹
  hematocrit: 42%
  hemoglobin: 12.9 g/dL
